Bounds are passed on as bounds.

Sequence of IDH1-R132H recombinant protein (O75874 whole entry R132H): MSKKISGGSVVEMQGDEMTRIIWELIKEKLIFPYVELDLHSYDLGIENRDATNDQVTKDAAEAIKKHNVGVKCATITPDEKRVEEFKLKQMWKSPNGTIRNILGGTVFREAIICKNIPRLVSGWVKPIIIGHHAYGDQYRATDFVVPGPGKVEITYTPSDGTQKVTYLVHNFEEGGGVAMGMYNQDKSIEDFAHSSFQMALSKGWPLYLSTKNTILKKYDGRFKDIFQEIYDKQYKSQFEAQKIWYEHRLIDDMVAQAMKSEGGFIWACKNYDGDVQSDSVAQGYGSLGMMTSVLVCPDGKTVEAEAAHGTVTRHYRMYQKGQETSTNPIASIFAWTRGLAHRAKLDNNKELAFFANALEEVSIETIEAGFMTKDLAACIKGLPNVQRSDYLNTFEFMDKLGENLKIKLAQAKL

For the assay, the target named is IDH1-R132H recombinant protein (Homo sapiens (Human), UniProt O75874, R132H). Put plainly: IDH1-R132H enzymatic assay. As to conditions: inhibition of NADPH consumption, diaphorase/resazurin readout; read-out: Enzyme IDH1 R132H Range IC50. It counts as biochemical. As for the experimental part:
Assays were performed in a 384-well black plate. […] After the plate was centrifuged briefly, an aliquot of 10 μL of 2 mM α-ketoglutarate and 20 μM NADPH solution prepared in assay buffer was then added to each well and the reaction was maintained at 25° C. for 45 minutes. An aliquot of 10 μL of diaphorase solution (0.15 U/mL diaphorase and 30 μM Resazurin in assay buffer) was added to each well. […] The IC50 of a given compound was calculated by fitting the dose response curve of inhibition of NADPH consumption at a given concentration with the four parameter logistic equation.
Consider `Cc1noc(C)c1-c1ccnc(N[C@@H](C)c2cc3cc(Cl)ccc3[nH]c2=O)c1F` [Compound I-54, 6-chloro-3-[(1S)-1-{[4-(dimethyl-1,2-oxazol-4-yl)-3-fluoropyridin-2-yl]amino}ethyl]-1,2-dihydroquinolin-2-one], for which the IC50 was above 10000 nM.
The result for `Cc1nc(NCc2cc3cc(Cl)c(OCc4ccccn4)cc3[nH]c2=O)ccc1C#N` [Compound I-84, 6-({[6-chloro-2-oxo-7-(pyridin-2-ylmethoxy)-1,2-dihydroquinolin-3-yl]methyl}amino)-2-methylpyridine-3-carbonitrile] reads 100 to 1000 nM; that for `COc1ccc2[nH]c(=O)c(CNc3ccc(C#N)cn3)cc2c1` [Compound I-81, 6-{[(6-methoxy-2-oxo-1,2-dihydroquinolin-3-yl)methyl]amino}pyridine-3-carbonitrile], 1000 to 10000 nM.
The result for `CC(C)C1CCCN1c1nc(NCc2cc3cc(Cl)ccc3[nH]c2=O)ccc1C#N` (centres unmarked) [Compound I-64, 6-{[(6-chloro-2-oxo-1,2-dihydroquinolin-3-yl)methyl]amino}-2-[2-(propan-2-yl)pyrrolidin-1-yl]pyridine-3-carbonitrile] reads above 10000 nM; that for `Cc1c(-c2ccnc(N[C@@H](C)c3cc4cc(Cl)ccc4[nH]c3=O)c2F)cnn1C` [Compound I-45, 6-chloro-3-[(1S)-1-{[4-(1,5-dimethyl-1H-pyrazol-4-yl)-3-fluoropyridin-2-yl]amino}ethyl]-1,2-dihydroquinolin-2-one], 1000 to 10000 nM; that for `Cc1c(N2CCOC2=O)ccnc1N[C@@H](C)c1cc2cc(Cl)ccc2[nH]c1=O` [Compound I-15, 6-chloro-3-[(1S)-1-{[3-methyl-4-(2-oxo-1,3-oxazolidin-3-yl)pyridin-2-yl]amino}ethyl]-1,2-dihydroquinolin-2-one], 100 to 1000 nM.
Take `Cc1n[nH]c(C)c1-c1ccnc(N[C@@H](C)c2cc3cc(Cl)ccc3[nH]c2=O)c1F` [Compound I-51, 6-chloro-3-[(1S)-1-{[4-(3,5-dimethyl-1H-pyrazol-4-yl)-3-fluoropyridin-2-yl]amino}ethyl]-1,2-dihydroquinolin-2-one]: the IC50 lay in the range of 1000 to 10000 nM.
The result for `CC(C)c1cccnc1NCc1cc2cc(Cl)ccc2[nH]c1=O` [Compound I-68, 6-chloro-3-({[3-(propan-2-yl)pyridin-2-yl]amino}methyl)-1,2-dihydroquinolin-2-one] reads 100 to 1000 nM.
The result for `Cc1ccnc(NCc2cc3cc(Cl)ccc3[nH]c2=O)c1` [Compound I-74, 6-chloro-3-{[(4-methylpyridin-2-yl)amino]methyl}-1,2-dihydroquinolin-2-one] reads 1000 to 10000 nM; that for `O=c1[nH]c2ccc(Cl)cc2cc1CNc1cccnc1O` [Compound I-76, 6-chloro-3-{[(2-hydroxypyridin-3-yl)amino]methyl}-1,2-dihydroquinolin-2-one], 1000 to 10000 nM.
To `Cc1nc(NC(C)(C)c2cc3cc(Cl)ccc3[nH]c2=O)ccc1C#N` [Compound I-32, 6-{[2-(6-chloro-2-oxo-1,2-dihydroquinolin-3-yl)propan-2-yl]amino}-2-methylpyridine-3-carbonitrile] belongs 100 to 1000 nM; to `Cc1cscc1-c1ccnc(N[C@@H](C)c2cc3cc(Cl)ccc3[nH]c2=O)c1F` [Compound I-46, 6-chloro-3-[(1S)-1-{[3-fluoro-4-(4-methylthiophen-3-yl)pyridin-2-yl]amino}ethyl]-1,2-dihydroquinolin-2-one], 1000 to 10000 nM; to `Cc1cc(C)nc(NCc2cc3cc(Cl)ccc3[nH]c2=O)c1` [Compound I-69, 6-chloro-3-{[(4,6-dimethylpyridin-2-yl)amino]methyl}-1,2-dihydroquinolin-2-one], 1000 to 10000 nM.
Regarding `CC(C)CN(C)c1nc(NCc2cc3cc(Cl)ccc3[nH]c2=O)ccc1C#N` [Compound I-65, 6-{[(6-chloro-2-oxo-1,2-dihydroquinolin-3-yl)methyl]amino}-2-[methyl(2-methylpropyl)amino]pyridine-3-carbonitrile], the IC50 is above 10000 nM.
Turning to `C[C@H](Nc1nccc(-n2ccnc2)c1F)c1cc2cc(Cl)ccc2[nH]c1=O` [Compound I-37, 6-chloro-3-[(1S)-1-{[3-fluoro-4-(1H-imidazol-1-yl)pyridin-2-yl]amino}ethyl]-1,2-dihydroquinolin-2-one], the IC50 fell in the range of 1000 to 10000 nM.
The result for `C[C@H](Nc1cc(F)cc(N2CCOC2=O)n1)c1cc2cc(Cl)ccc2[nH]c1=O` [Compound I-16, 6-chloro-3-[(1S)-1-{[4-fluoro-6-(2-oxo-1,3-oxazolidin-3-yl)pyridin-2-yl]amino}ethyl]-1,2-dihydroquinolin-2-one] reads 1000 to 10000 nM.
The result for `Cc1cc(N2CCOC2=O)cc(N[C@@H](C)c2cc3cc(Cl)ccc3[nH]c2=O)n1` [Compound I-12, 6-chloro-3-[(1S)-1-{[6-methyl-4-(2-oxo-1,3-oxazolidin-3-yl)pyridin-2-yl]amino}ethyl]-1,2-dihydroquinolin-2-one] reads 100 to 1000 nM; that for `COc1ccnc(NCc2cc3cc(Cl)ccc3[nH]c2=O)c1` [Compound I-70, 6-chloro-3-{[(4-methoxypyridin-2-yl)amino]methyl}-1,2-dihydroquinolin-2-one], 1000 to 10000 nM.
To `N#Cc1ccnc(NCc2cc3cc(Cl)ccc3[nH]c2=O)c1` [Compound I-72, 2-{[(6-chloro-2-oxo-1,2-dihydroquinolin-3-yl)methyl]amino}pyridine-4-carbonitrile] belongs 1000 to 10000 nM; to `Cc1cc2cc(CNc3ccc(C#N)cn3)c(=O)[nH]c2cc1C` [Compound I-80, 6-{[(6,7-dimethyl-2-oxo-1,2-dihydroquinolin-3-yl)methyl]amino}pyridine-3-carbonitrile], 100 to 1000 nM.
On to `C[C@H](Nc1cccc(N2CCCS2(=O)=O)n1)c1cc2cc(Cl)ccc2[nH]c1=O` [Compound I-35, 2-(6-{[(1S)-1-(6-chloro-2-oxo-1,2-dihydroquinolin-3-yl)ethyl]amino}pyridin-2-yl)-1λ^6,2-thiazolidine-1,1-dione], for which the IC50 lay within 1000 to 10000 nM.
The result for `O=c1[nH]c2ccc(Cl)cc2cc1CNc1cc(C(F)(F)F)ccn1` [Compound I-79, 6-chloro-3-({[4-(trifluoromethyl)pyridin-2-yl]amino}methyl)-1,2-dihydroquinolin-2-one] reads above 10000 nM; that for `CC(C)[C@H]1COC(=O)N1c1cccc(N[C@H](C)c2cc3cc(Cl)ccc3[nH]c2=O)n1` [Compound I-20, 6-chloro-3-[(1R)-1-({6-[(4S)-2-oxo-4-(propan-2-yl)-1,3-oxazolidin-3-yl]pyridin-2-yl}amino)ethyl]-1,2-dihydroquinolin-2-one], above 10000 nM; that for `COc1ccc2[nH]c(=O)c(CNc3cc(C)ccn3)cc2c1` [Compound I-82, 6-methoxy-3-{[(4-methylpyridin-2-yl)amino]methyl}-1,2-dihydroquinolin-2-one], above 10000 nM.
The result for `O=c1[nH]c2ccc(Cl)cc2cc1CNc1ccc(F)cn1` [Compound I-71, 6-chloro-3-{[(5-fluoropyridin-2-yl)amino]methyl}-1,2-dihydroquinolin-2-one] reads 1000 to 10000 nM.
To `N#Cc1ccc(NCc2cc3cc(Cl)ccc3[nH]c2=O)cn1` [Compound I-78, 5-{[(6-chloro-2-oxo-1,2-dihydroquinolin-3-yl)methyl]amino}pyridine-2-carbonitrile] belongs above 10000 nM.

(Values after patent publication US10253015B2, “Pyridinyl quinolinone derivatives as mutant-isocitrate dehydrogenase inhibitors” (FORMA TM2, Inc., priority 2014, dated 2019).)
